BindingDB's records for doi:10.1021/jm701348d (Inspire Pharmaceuticals, 2008)
Values joined by “and” are separate entries in the source; they are usually repeats but may differ in a detail not shown here. Equal values may be shown once.

Test: Antagonist activity at P2Y12 receptor assessed as inhibition of ADP-induced human platelet aggregation by washed platelet assay

SMILES	IC50
O=c1ccn([C@@H]2O[C@H](COP(=O)(O)OP(=O)(O)OP(=O)(O)OP(=O)(O)OC[C@@H]3O[C@H](n4ccc(=O)[nH]c4=O)[C@H]4OC(c5ccccc5)O[C@H]43)[C@H]3OC(c4ccccc4)O[C@H]32)c(=O)[nH]1 (some centres not stated)	8.29 µM
CNc1ccccc1C(=O)O[C@H]1[C@@H](O)[C@H](n2ccc(=O)[nH]c2=O)O[C@@H]1COP(=O)(O)OP(=O)(O)OP(=O)(O)OP(=O)(O)OC[C@@H]1O[C@H](n2ccc(=O)[nH]c2=O)[C@@H](OC(=O)c2ccccc2NC)[C@H]1O	7.59 µM
O=c1ccn([C@@H]2O[C@H](COP(=O)(O)OP(=O)(O)OP(=O)(O)OP(=O)(O)OC[C@@H]3O[C@H](n4ccc(=O)[nH]c4=O)[C@H]4OC(/C=C/c5ccccc5)O[C@H]43)[C@H]3OC(/C=C/c4ccccc4)O[C@H]32)c(=O)[nH]1 (some centres not stated)	3.3 µM
O=c1ccn([C@@H]2O[C@H](COP(=O)(O)OP(=O)(O)OP(=O)(O)OP(=O)(O)OC[C@@H]3O[C@H](n4ccc(=O)[nH]c4=O)[C@@H](O)[C@H]3O)[C@H]3OC(/C=C/c4ccccc4)O[C@H]32)c(=O)[nH]1 (some centres not stated)	8.68 µM and 8.8 µM
O=c1ccn([C@@H]2O[C@H](COP(=O)(O)OP(=O)(O)OP(=O)(O)OP(=O)(O)OC[C@@H]3O[C@H](n4ccc(=O)[nH]c4=O)[C@@H](O)[C@H]3O)[C@@H]3OC(c4ccccc4)O[C@H]32)c(=O)[nH]1 (some centres not stated)	16.7 µM
O=C(Nc1ccccc1)Nc1ncnc2c1ncn2[C@@H]1O[C@H](COP(=O)(O)O)[C@H]2OC(C#Cc3ccccc3)O[C@H]21 (some centres not stated)	0.288 µM
CCCCCCNC(=O)Nc1ncnc2c1ncn2[C@@H]1O[C@H](COP(=O)(O)O)[C@H]2OC(C#Cc3ccccc3)O[C@H]21 (some centres not stated)	0.211 µM
O=C(Nc1ccccc1)Nc1ncnc2c1ncn2[C@@H]1O[C@H](COP(=O)(O)O)[C@H]2OC(/C=C/c3ccccc3)O[C@H]21 (some centres not stated)	0.21 µM
CCCCCCNC(=O)Nc1ncnc2c1ncn2[C@@H]1O[C@H](COP(=O)(O)O)[C@H]2OC(/C=C/c3ccccc3)O[C@H]21 (some centres not stated)	0.237 µM
CCNC(=O)Nc1ncnc2c1ncn2[C@@H]1O[C@H](COP(=O)(O)O)[C@H]2OC(c3ccccc3)O[C@H]21 (some centres not stated)	0.013 µM
O=C(Nc1ncnc2c1ncn2[C@@H]1O[C@H](COP(=O)(O)O)[C@H]2OC(Cc3ccccc3)O[C@H]21)NC1CCCC1 (some centres not stated)	0.0362 µM
CCNC(=O)Nc1ncnc2c1ncn2[C@@H]1O[C@H](COP(=O)(O)O)[C@H]2OC(Cc3ccccc3)O[C@H]21 (some centres not stated)	0.041 µM
CCCCCCNC(=O)Nc1ncnc2c1ncn2[C@@H]1O[C@H](COP(=O)(O)O)[C@H]2OC(Cc3ccccc3)O[C@H]21 (some centres not stated)	0.053 µM
O=C(Nc1ccccc1)Nc1ncnc2c1ncn2[C@@H]1O[C@H](COP(=O)(O)O)[C@H]2OC(Cc3ccccc3)O[C@H]21 (some centres not stated)	0.16 µM
Nc1ncnc2c1ncn2[C@@H]1O[C@H](COP(=O)(O)O)[C@H]2OC(C#Cc3ccccc3)O[C@H]21 (some centres not stated)	57.1 µM
Nc1ncnc2c1ncn2[C@@H]1O[C@H](COP(=O)(O)O)[C@H]2OC(/C=C/c3ccccc3)O[C@H]21 (some centres not stated)	45.1 µM

SMILES	IC50
O=C(Nc1ccccc1)Nc1ncnc2c1ncn2[C@@H]1O[C@H](COP(=O)(O)O)[C@@H](O)[C@H]1O	3.11 µM
O=C(Nc1ccc(F)cc1)Nc1ccn([C@@H]2O[C@H](COP(=O)(O)OP(=O)(O)OP(=O)(O)OP(=O)(O)OC[C@@H]3O[C@H](n4ccc(=O)[nH]c4=O)[C@@H](O)[C@H]3O)[C@H]3O[C@@H](Cc4ccccc4)O[C@H]32)c(=O)n1	12.9 µM
O=C(Nc1ccc(F)cc1)Nc1ccn([C@@H]2O[C@H](COP(=O)(O)OP(=O)(O)OP(=O)(O)OP(=O)(O)OC[C@@H]3O[C@H](n4ccc(=O)[nH]c4=O)[C@H]4O[C@@H](Cc5ccccc5)O[C@H]43)[C@@H](O)[C@H]2O)c(=O)n1	23.9 µM
O=C(Nc1ccc(F)cc1)Nc1ccn([C@@H]2O[C@H](COP(=O)(O)O)[C@H]3O[C@@H](Cc4ccccc4)O[C@H]32)c(=O)n1	11.2 µM
O=C(Nc1ccccc1)Nc1ncnc2c1ncn2[C@@H]1O[C@H](COP(=O)(O)OP(=O)(O)OP(=O)(O)OP(=O)(O)OC[C@@H]2O[C@H](n3cnc4c(NC(=O)Nc5ccccc5)ncnc43)[C@H]3O[C@@H](Cc4ccccc4)O[C@H]32)[C@H]2O[C@@H](Cc3ccccc3)O[C@H]21	0.522 µM
O=C(Nc1ccccc1)Nc1ncnc2c1ncn2[C@@H]1O[C@H](COP(=O)(O)OP(=O)(O)O)[C@H]2O[C@@H](Cc3ccccc3)O[C@H]21	0.052 µM
Nc1ncnc2c1ncn2[C@@H]1O[C@H](COP(=O)(O)OP(=O)(O)O)[C@H]2O[C@@H](Cc3ccccc3)O[C@H]21	23 µM
O=C(Nc1ccccc1)Nc1ncnc2c1ncn2[C@@H]1O[C@H](COP(=O)(O)OP(=O)(O)O)[C@@H](O)[C@H]1O	10.8 µM
Nc1ncnc2c1ncn2[C@@H]1O[C@H](COP(=O)(O)OP(=O)(O)OP(=O)(O)OP(=O)(O)OC[C@@H]2O[C@H](n3cnc4c(N)ncnc43)[C@H]3OC(Cc4ccccc4)O[C@H]32)[C@H]2OC(Cc3ccccc3)O[C@H]21 (some centres not stated)	11.7 µM
Nc1ncnc2c1ncn2[C@@H]1O[C@H](COP(=O)(O)OP(=O)(O)OP(=O)(O)OP(=O)(O)OC[C@@H]2O[C@H](n3cnc4c(N)ncnc43)[C@@H](O)[C@H]2O)[C@H]2OC(Cc3ccccc3)O[C@H]21 (some centres not stated)	6.54 µM
O=c1ccn([C@@H]2O[C@H](COP(=O)(O)OP(=O)(O)OP(=O)(O)OC[C@@H]3O[C@H](n4ccc(=O)[nH]c4=O)[C@H]4OC(Cc5ccccc5)O[C@H]43)[C@H]3OC(Cc4ccccc4)O[C@H]32)c(=O)[nH]1 (some centres not stated)	4.63 µM
O=c1ccn([C@@H]2O[C@H](COP(=O)(O)OP(=O)(O)OP(=O)(O)OC[C@@H]3O[C@H](n4ccc(=O)[nH]c4=O)[C@@H](O)[C@H]3O)[C@H]3OC(Cc4ccccc4)O[C@H]32)c(=O)[nH]1 (some centres not stated)	34.7 µM
CCCCCCCC1O[C@@H]2[C@H](O1)[C@@H](COP(=O)(O)OP(=O)(O)OP(=O)(O)OP(=O)(O)OC[C@@H]1O[C@H](n3ccc(=O)[nH]c3=O)[C@H]3OC(CCCCCCC)O[C@H]31)O[C@H]2n1ccc(=O)[nH]c1=O (some centres not stated)	10.7 µM
CCCCCCCC1O[C@@H]2[C@H](O1)[C@@H](COP(=O)(O)OP(=O)(O)OP(=O)(O)OP(=O)(O)OC[C@@H]1O[C@H](n3ccc(=O)[nH]c3=O)[C@@H](O)[C@H]1O)O[C@H]2n1ccc(=O)[nH]c1=O (some centres not stated)	16.9 µM
O=c1ccn([C@@H]2O[C@H](COP(=O)(O)OP(=O)(O)OP(=O)(O)OP(=O)(O)OC[C@@H]3O[C@H](n4ccc(=O)[nH]c4=O)[C@H]4OC(Cc5ccccc5)O[C@H]43)[C@H]3OC(Cc4ccccc4)O[C@H]32)c(=O)[nH]1 (some centres not stated)	1.82 µM
O=c1ccn([C@@H]2O[C@H](COP(=O)(O)OP(=O)(O)OP(=O)(O)OP(=O)(O)OC[C@@H]3O[C@H](n4ccc(=O)[nH]c4=O)[C@@H](O)[C@H]3O)[C@@H]3OC(Cc4ccccc4)O[C@H]32)c(=O)[nH]1 (some centres not stated)	27.1 µM
